Calls of active or inactive are those of the source.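 Rule for the calls: active = EC50 at or below 30 µM together with a response span of at least a set limit; inactive = the rest.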
Biological target: GTPase HRas (Homo sapiens) (UniProt P01112)
Experiment: inhibition of fluorescent GTP binding to activated Ras – biochemical, pyrazoline analogs, multiplex bead flow cytometry, SAR follow-up (AID 2050)
Details: GST-Ras beads, Bodipy-FL-GTP binding

Chain of GTPase HRas (Homo sapiens) (P01112 whole entry, looked up): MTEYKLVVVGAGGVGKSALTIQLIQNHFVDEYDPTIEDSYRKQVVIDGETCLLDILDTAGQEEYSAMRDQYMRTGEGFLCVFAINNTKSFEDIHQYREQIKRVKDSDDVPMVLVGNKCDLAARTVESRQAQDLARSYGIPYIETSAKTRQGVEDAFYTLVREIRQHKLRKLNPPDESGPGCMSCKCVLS

**Q.** Which EC50 does the source give for `COc1ccc(C2CC(C(C)(C)C)=NN2c2ccc(S(N)(=O)=O)cc2)cc1` (stereo unspecified) here?
**A.** Its EC50 is > 30 µM (inactive).
